According to patent US20240262814A1, “MODULATORS OF TREX1” (Constellation Pharmaceuticals, Inc., priority 2021, published 2024):

Assays:
human TREX1 = molecular target: T1, human TREX1 (Homo sapiens, UniProt Q9NSU2); test: hTREX1 Biochemical Assay (fluorescence, dsDNA substrate degradation); details: full length human TREX1, 4 h pre-incubation, 18 h reaction at 25° C.
T1 construct: N-terminally His-Tev tagged full length human TREX1; made in house; host or cells: E. coli
T1 sequence (Q9NSU2 1-314): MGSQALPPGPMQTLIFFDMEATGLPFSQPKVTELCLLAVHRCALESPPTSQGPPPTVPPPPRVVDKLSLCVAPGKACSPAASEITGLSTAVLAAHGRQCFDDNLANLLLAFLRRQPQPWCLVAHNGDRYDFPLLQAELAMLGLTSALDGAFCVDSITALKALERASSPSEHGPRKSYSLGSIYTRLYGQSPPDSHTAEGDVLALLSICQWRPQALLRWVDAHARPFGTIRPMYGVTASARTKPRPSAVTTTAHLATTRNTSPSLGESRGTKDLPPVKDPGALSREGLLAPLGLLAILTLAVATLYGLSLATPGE
How it was run: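 His-Tev-tagged full-length E. coli-expressed enzyme (4 pM final) preincubated with compound 4 h at 25° C., then 60 nM quenched-fluorophore dsDNA added in Tris pH 7.4, 5 mM MgCl2, 1% DMSO. After 18 h at 25° C., EDTA-quenched; fluorescence 615 nm (ex 570 nm); IC50 from four-parameter fit versus EDTA and no-inhibitor controls.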

mouse TREX1 = molecular target: T2, mouse TREX1 (Mus musculus, UniProt Q91XB0); test: mTREX1 Biochemical Assay (fluorescence, dsDNA substrate degradation); details: full length mouse TREX1, 4 h pre-incubation, 18 h reaction at 25° C.
T2 construct: N-terminally His-Tev tagged full length mouse TREX1; made in house; host or cells: E. coli
T2 sequence (Q91XB0 1-314): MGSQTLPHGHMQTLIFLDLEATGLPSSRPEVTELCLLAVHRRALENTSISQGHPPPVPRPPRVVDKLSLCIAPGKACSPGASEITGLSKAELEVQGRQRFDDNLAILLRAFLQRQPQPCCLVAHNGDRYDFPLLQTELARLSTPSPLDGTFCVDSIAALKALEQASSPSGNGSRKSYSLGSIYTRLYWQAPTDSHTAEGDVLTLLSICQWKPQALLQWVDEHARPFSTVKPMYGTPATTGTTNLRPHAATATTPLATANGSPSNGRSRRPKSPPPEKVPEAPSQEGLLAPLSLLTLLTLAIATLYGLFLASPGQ
How it was run: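 Full-length His-Tev mouse TREX1 (E. coli) was preincubated with compound 4 h at 25 °C, then run 18 h at 25 °C. Finals were 6 pM enzyme, 60 nM TEX615/quencher dsDNA, 1% DMSO, pH 7.4 Tris with 5 mM MgCl2. After EDTA quench, fluorescence was read at 615 nm; IC50 by four-parameter fit against EDTA and no-inhibitor controls.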

human TREX2 = molecular target: T3, human TREX2 (Homo sapiens, UniProt Q9BQ50); test: hTREX2 Biochemical Assay (selectivity hTREX1 vs hTREX2); details: biochemical selectivity for hTREX1 vs hTREX2
T3 construct: human TREX2 (residues M44-A279, expressed in E. coli); made in house; host or cells: E. coli
T3 sequence (Q9BQ50 44-279 isoform Q9BQ50-1): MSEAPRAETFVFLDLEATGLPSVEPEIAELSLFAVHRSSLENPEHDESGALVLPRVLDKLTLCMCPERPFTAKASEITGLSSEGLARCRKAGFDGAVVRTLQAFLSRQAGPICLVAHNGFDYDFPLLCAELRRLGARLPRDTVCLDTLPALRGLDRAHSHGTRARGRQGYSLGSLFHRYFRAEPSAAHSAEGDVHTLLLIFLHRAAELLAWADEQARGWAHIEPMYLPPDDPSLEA
How it was run: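 His-Tev-tagged human TREX2 (M44-A279, E. coli-expressed) preincubated with compound (10-point dose-response) for 4 h at 25 °C in Tris pH 7.4 buffer with 5 mM MgCl2. Reaction then run with 60 nM TEX615/quencher dsDNA and 50 pM enzyme (1% DMSO) for 18 h at 25 °C and EDTA-quenched. Fluorescence read at 615 nm (ex 570 nm); IC50 by four-parameter fit against pre-quenched and no-inhibitor controls.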

Row | SMILES | IC50 (human TREX1) [nM] | IC50 (mouse TREX1) [nM] | hTREX1 vs hTREX2 selectivity (human TREX2)
1 | C[C@H](c1nc(C(=O)Nc2cnoc2)c(O)c(=O)n1C)[C@H](c1ccccc1)c1ccc(C(=O)N(C)C)cc1C#N (single isomer, unassigned) [Example 16 Isomer 3, 2-(1-(2-cyano-4-(dimethylcarbamoyl)phenyl)-1-phenylpropan-2-yl)-5-hydroxy-N-(isoxazol-4-yl)-1-methyl-6-oxo-1,6-dihydropyrimidine-4-carboxamide] | > 100 | > 10 | A (A = <25 fold selective for hTREX1)
2 | C[C@H](c1nc(C(=O)Nc2cnoc2)c(O)c(=O)n1C)[C@H](c1ccccc1)c1ccc(C(=O)N(C)C)cc1C#N (single isomer, unassigned) [Example 16 Isomer 4, 2-(1-(2-cyano-4-(dimethylcarbamoyl)phenyl)-1-phenylpropan-2-yl)-5-hydroxy-N-(isoxazol-4-yl)-1-methyl-6-oxo-1,6-dihydropyrimidine-4-carboxamide] | < 1 | < 1 | B (B = 25 to 50 fold selective for hTREX1)
3 | CC(c1nc(C(=O)Nc2cnoc2)c(O)c(=O)n1C)C(c1ccccc1)c1cc(C(=O)N(C)C)ccc1C#N (single isomer, unassigned) [Example 17 Isomer 1] | 10 to 100 | > 10 | A (A = <25 fold selective for hTREX1)
4 | Cn1c([C@@H](CF)C(c2ccccc2)c2ccccc2)nc(C(=O)Nc2cnoc2)c(O)c1=O (single isomer, unassigned) [Example 18 Isomer 1, 2-(3-fluoro-1,1-diphenylpropan-2-yl)-5-hydroxy-N-(isoxazol-4-yl)-1-methyl-6-oxo-1,6-dihydropyrimidine-4-carboxamide] | 10 to 100 | > 10 | A (A = <25 fold selective for hTREX1)
5 | Cn1c([C@H](C(c2ccccc2)c2ccccc2)C(F)(F)F)nc(C(=O)Nc2cnoc2)c(O)c1=O (single isomer, unassigned) [Example 20 Isomer 2, 5-Hydroxy-N-(isoxazol-4-yl)-1-methyl-6-oxo-2-(1,1,1-trifluoro-3,3-diphenylpropan-2-yl)-1,6-dihydropyrimidine-4-carboxamide] | > 100 | > 10 | A (A = <25 fold selective for hTREX1)
6 | Cn1c([C@@H](C(c2ccccc2C#N)c2ccccc2C#N)C(F)(F)F)nc(C(=O)Nc2cnoc2)c(O)c1=O (single isomer, unassigned) [Example 21 Isomer 2, 2-(3,3-bis(2-cyanophenyl)-1,1,1-trifluoropropan-2-yl)-5-hydroxy-N-(isoxazol-4-yl)-1-methyl-6-oxo-1,6-dihydropyrimidine-4-carboxamide] | 10 to 100 | > 10 | C (C = >50 fold selective for hTREX1)
7 | Cn1c(C(F)(F)C(c2ccccc2)c2ccccc2)nc(C(=O)Nc2cnoc2)c(O)c1=O [Example 19, 2-(1,1-difluoro-2,2-diphenylethyl)-5-hydroxy-N-(isoxazol-4-yl)-1-methyl-6-oxo-1,6-dihydropyrimidine-4-carboxamide] | 10 to 100 | > 10 | B (B = 25 to 50 fold selective for hTREX1)
8 | Cn1c(CC(c2ccccc2)c2ccccc2)nc(C(=O)Nc2cnoc2)c(O)c1=O [Example A, 2-(2,2-diphenylethyl)-5-hydroxy-N-(isoxazol-4-yl)-1-methyl-6-oxo-1,6-dihydropyrimidine-4-carboxamide] | > 100 | > 10 | A (A = <25 fold selective for hTREX1)
9 | Cn1c(C(C)(C)C(c2ccccc2)c2ccccc2)nc(C(=O)Nc2cnoc2)c(O)c1=O [Example B, 5-hydroxy-N-(isoxazol-4-yl)-1-methyl-2-(2-methyl-1,1-diphenylpropan-2-yl)-6-oxo-1,6-dihydropyrimidine-4-carboxamide] | > 100 | > 10 | A (A = <25 fold selective for hTREX1)
